These results are taken from PubChem BioAssay AID328 (DTP/NCI, 2004).

Several values for one entry are separate records, joined by “and”; a condition that tells them apart may be missing. Equal entries are not always repeated. Inconclusive results and toxic doses are left out.

This assay deals with BDF1 mice, P388 leukemia ip, median survival T/C. Nature of the assay: NCI In Vivo Anticancer Drug Screen. Data for tumor model P388 Leukemia (intraperitoneal) in B6D2F1 (BDF1) mice. The settings on record: endpoint: median survival time, higher = longer survival. In a few lines:
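Survival ratio, drug arm over vehicle arm, in mice with a transplanted tumour.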

Where [1] appears, read: dose: 50.0 mg/kg/injection, schedule: Q01DX009 (ip), vehicle: saline with Tween-80.
The mark [2] stands for this setting: dose: 12.5 mg/kg/injection, schedule: Q01DX009 (ip), vehicle: saline.
Setting [3] is: dose: 100.0 mg/kg/injection, schedule: Q01DX009 (ip), vehicle: saline with Tween-80.
[4] abbreviates: dose: 25.0 mg/kg/injection, schedule: Q04DX003 (ip), vehicle: saline.
Where [5] appears, read: dose: 50.0 mg/kg/injection, schedule: Q04DX003 (ip), vehicle: saline.
Where [6] appears, read: dose: 12.5 mg/kg/injection, schedule: Q01DX009 (ip), vehicle: saline with Tween-80.

Take `COc1cc(C(=O)NCC2(C)OC3(OC(=O)C2O)C(=O)N/C(=C(\C=O)C(C)=O)OC3C(O)C2CN2C(C)=O)c2cccc(C)c2c1` (stereo unspecified): the T/C was 245 % of control (dose: 0.05 mg/kg/injection, schedule: Q01DX010 (ip), vehicle: alkali diluted with saline); 300 % of control (dose: 0.1 mg/kg/injection, schedule: Q01DX010 (ip), vehicle: alkali diluted with saline); 180 % of control (dose: 12.5 micrograms/kg/injection, schedule: Q01DX010 (ip), vehicle: other); 155 % of control (dose: 25.0 micrograms/kg/injection, schedule: Q01DX010 (ip), vehicle: other); 195 % of control (dose: 50.0 micrograms/kg/injection, schedule: Q01DX010 (ip), vehicle: other).

In the case of `COc1ccc2[nH]c3c(c2c1)CSc1ccccc1-3`, the T/C is 91 % of control (dose: 100.0 mg/kg/injection, schedule: Q01DX001 (ip), vehicle: Klucel (hydroxypropylcellulose) (HPC)); 108 % of control (dose: 200.0 mg/kg/injection, schedule: Q01DX001 (ip), vehicle: Klucel (hydroxypropylcellulose) (HPC)); 108 % of control (dose: 400.0 mg/kg/injection, schedule: Q01DX001 (ip), vehicle: Klucel (hydroxypropylcellulose) (HPC)).

As to `COc1c(C)cc(Br)c2c1C(CCN(C)S(=O)(=O)Cc1ccccc1)CCC2` (stereo unspecified), the T/C is 100 % of control (dose: 100.0 mg/kg/injection, schedule: Q01DX009 (ip), vehicle: Klucel (hydroxypropylcellulose) (HPC)); 110 % of control (dose: 200.0 mg/kg/injection, schedule: Q01DX009 (ip), vehicle: Klucel (hydroxypropylcellulose) (HPC)); 110 % of control (dose: 400.0 mg/kg/injection, schedule: Q01DX009 (ip), vehicle: Klucel (hydroxypropylcellulose) (HPC)).

With `CC(C)(C)C1Sc2nc3ccccc3n2C1=O` (stereo unspecified), the T/C by setting is: (dose: 12.5 mg/kg/injection, schedule: Q01DX009 (ip), vehicle: Klucel (hydroxypropylcellulose) (HPC)) 114 % of control; (dose: 12.5 mg/kg/injection, schedule: Q04DX003 (ip), vehicle: Klucel (hydroxypropylcellulose) (HPC)) 100 % of control; (dose: 25.0 mg/kg/injection, schedule: Q01DX009 (ip), vehicle: Klucel (hydroxypropylcellulose) (HPC)) 114 % of control; (dose: 25.0 mg/kg/injection, schedule: Q04DX003 (ip), vehicle: Klucel (hydroxypropylcellulose) (HPC)) 120 % of control; (dose: 50.0 mg/kg/injection, schedule: Q04DX003 (ip), vehicle: Klucel (hydroxypropylcellulose) (HPC)) 120 % of control.

In the case of `NNC(=O)CCCCCCCCCCCCCCCO`, the T/C under setting [1] is 94 % of control.

Consider `N=C(N)c1nn(C2OC(CO)C(O)C2O)c2ncnc(N)c12` (stereo unspecified), for which the T/C is 114 % of control and 117 % of control (dose: 10.0 mg/kg/injection, schedule: Q01DX009 (ip), vehicle: saline); 109 % of control and 118 % of control (dose: 10.0 mg/kg/injection, schedule: Q04DX003 (ip), vehicle: saline); 117 % of control and 124 % of control (dose: 20.0 mg/kg/injection, schedule: Q01DX009 (ip), vehicle: saline); 122 % of control (dose: 20.0 mg/kg/injection, schedule: Q04DX003 (ip), vehicle: saline); 104 % of control (dose: 40.0 mg/kg/injection, schedule: Q04DX003 (ip), vehicle: saline); 95 % of control (dose: 80.0 mg/kg/injection, schedule: Q04DX003 (ip), vehicle: saline).

For the molecule `COc1ccc2c(c1)/C(=C/CCN(C)C)c1ccccc1S2`, the T/C is 109 % of control under setting [2]; 118 % of control (dose: 16.5 mg/kg/injection, schedule: Q01DX009 (ip), vehicle: saline); 95 % of control (dose: 37.5 mg/kg/injection, schedule: Q01DX009 (ip), vehicle: saline); 118 % of control (dose: 50.0 mg/kg/injection, schedule: Q01DX009 (ip), vehicle: saline).

For the molecule `CCOC(=O)c1ccnc2ccc(O)cc12`, the T/C was 91 % of control (dose: 100.0 mg/kg/injection, schedule: Q04DX003 (ip), vehicle: saline with Tween-80); 108 % of control (dose: 200.0 mg/kg/injection, schedule: Q04DX003 (ip), vehicle: saline with Tween-80); 95 % of control (dose: 400.0 mg/kg/injection, schedule: Q04DX003 (ip), vehicle: saline with Tween-80).

With `COc1cccc(CN2CCCNCC2)c1`, the T/C (dose: 6.25 mg/kg/injection, schedule: Q04DX003 (ip), vehicle: water) is 92 % of control; the T/C (dose: 12.5 mg/kg/injection, schedule: Q04DX003 (ip), vehicle: water) is 93 % of control; the T/C (dose: 25.0 mg/kg/injection, schedule: Q04DX003 (ip), vehicle: water) was 93 % of control; the T/C (dose: 50.0 mg/kg/injection, schedule: Q04DX003 (ip), vehicle: water) is 112 % of control; the T/C (dose: 100.0 mg/kg/injection, schedule: Q04DX003 (ip), vehicle: water) is 89 % of control.

`COc1c(I)cc(/C=C(\C)[N+](=O)[O-])cc1I`: the T/C reads like this: under setting [1], 110 % of control; under setting [3], 112 % of control.

With `CC(=O)NC1=C(N2CC2C)C(=O)C(NC(C)=O)=C(N2CC2C)C1=O` (stereo unspecified), the T/C is 119 % of control (dose: 0.62 mg/kg/injection, schedule: Q01DX009 (ip), vehicle: saline); 114 % of control and 115 % of control (dose: 1.25 mg/kg/injection, schedule: Q01DX009 (ip), vehicle: saline); 118 % of control (dose: 4.4 mg/kg/injection, schedule: Q04DX003 (ip), vehicle: saline); 233 % of control and 215 % of control (dose: 5.0 mg/kg/injection, schedule: Q01DX009 (ip), vehicle: saline); 159 % of control (dose: 5.56 mg/kg/injection, schedule: Q01DX009 (ip), vehicle: saline); 104 % of control (dose: 6.6 mg/kg/injection, schedule: Q04DX003 (ip), vehicle: saline). Moreover, the T/C is 236 % of control (dose: 8.33 mg/kg/injection, schedule: Q01DX009 (ip), vehicle: saline); 166 % of control and 215 % of control (dose: 11.0 mg/kg/injection, schedule: Q04DX003 (ip), vehicle: saline); 163 % of control under setting [2]; 163 % of control (dose: 15.0 mg/kg/injection, schedule: Q04DX003 (ip), vehicle: saline); 230 % of control and 222 % of control (dose: 16.5 mg/kg/injection, schedule: Q04DX003 (ip), vehicle: saline); 90 % of control (dose: 18.7 mg/kg/injection, schedule: Q01DX009 (ip), vehicle: saline). Further, the T/C under setting [4] was 255 % of control and 110 % of control; the T/C (dose: 37.5 mg/kg/injection, schedule: Q04DX003 (ip), vehicle: saline) is 183 % of control; the T/C under setting [5] is 86 % of control and 100 % of control.

For `CCC1=CC(C(O)CC(C)C)C(C)(Cc2ccc(CC)cn2)NC1c1ccccc1` (stereo unspecified), the T/C by setting is: (dose: 25.0 mg/kg/injection, schedule: Q04DX002 (ip), vehicle: saline with Tween-80) 101 % of control; (dose: 50.0 mg/kg/injection, schedule: Q04DX002 (ip), vehicle: saline with Tween-80) 106 % of control.

For the molecule `Cc1c(N)ncc2ccccc12`, the T/C was 115 % of control (dose: 12.5 mg/kg/injection, schedule: Q04DX003 (ip), vehicle: saline); 108 % of control under setting [4]; 99 % of control under setting [5]; 118 % of control (dose: 100.0 mg/kg/injection, schedule: Q04DX003 (ip), vehicle: saline).

As for `CCOC(=O)C(CCCCC(NC(C)=O)(C(=O)OCC)C(=O)OCC)(NC(C)=O)C(=O)OCC`, the T/C is 95 % of control under setting [3]; 100 % of control (dose: 200.0 mg/kg/injection, schedule: Q01DX009 (ip), vehicle: saline with Tween-80); 104 % of control (dose: 400.0 mg/kg/injection, schedule: Q01DX009 (ip), vehicle: saline with Tween-80).

As to `Cc1cc(-c2ccc(Br)cc2)[n+](C)n1C`, the T/C is 102 % of control under setting [6]; 107 % of control (dose: 25.0 mg/kg/injection, schedule: Q01DX009 (ip), vehicle: saline with Tween-80); 111 % of control under setting [1].

In the case of `CCCCCCCCCCCC1=NCCN1`, the T/C by setting is: (dose: 3.13 mg/kg/injection, schedule: Q01DX009 (ip), vehicle: saline with Tween-80) 96 % of control; (dose: 6.25 mg/kg/injection, schedule: Q01DX009 (ip), vehicle: saline with Tween-80) 100 % of control; under setting [6], 104 % of control; (dose: 12.5 mg/kg/injection, schedule: Q04DX003 (ip), vehicle: saline with Tween-80) 96 % of control.

`Cc1cc(=O)[nH]c(N/N=C/c2ccc(O)cc2)n1`: the T/C runs as follows: (dose: 75.0 mg/kg/injection, schedule: Q01DX009 (ip), vehicle: Klucel (hydroxypropylcellulose) (HPC)) 104 % of control; (dose: 150.0 mg/kg/injection, schedule: Q01DX009 (ip), vehicle: Klucel (hydroxypropylcellulose) (HPC)) 109 % of control; (dose: 300.0 mg/kg/injection, schedule: Q01DX009 (ip), vehicle: Klucel (hydroxypropylcellulose) (HPC)) 95 % of control.
